# Measurements as given in PubChem BioAssay (NCI).
#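 At the GI50, growth is halved. TGI: total growth inhibition.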
# Experiments:
# Test in all cases: inhibition of tumour cell growth, NCI panel, 384-well format
# PC-3 prostate = test system: PC-3 prostate
# SF-268 CNS = test system: SF-268 CNS
# SN12C renal = test system: SN12C renal
# UACC-62 melanoma = test system: UACC-62 melanoma
# HL-60(TB) leukemia = test system: HL-60(TB) leukemia
# NCI-H522 lung = test system: NCI-H522 lung
# COLO 205 colon = test system: COLO 205 colon
# MALME-3M melanoma = test system: MALME-3M melanoma
# HS 578T breast = test system: HS 578T breast
# A549 NSCLC = test system: A549 NSCLC
# ACHN renal = test system: ACHN renal
# KM12 colon = test system: KM12 colon
# HCT-116 colon = test system: HCT-116 colon
# HOP-92 NSCLC = test system: HOP-92 NSCLC
# NCI-H226 lung = test system: NCI-H226 lung
# NCI-H23 lung = test system: NCI-H23 lung
# TK-10 renal = test system: TK-10 renal
# SNB-75 CNS = test system: SNB-75 CNS
# CAKI-1 renal = test system: CAKI-1 renal
# MDA-MB-231 breast = test system: MDA-MB-231 breast
# DU-145 prostate = test system: DU-145 prostate
# SF-539 CNS = test system: SF-539 CNS
# MCF7 breast = test system: MCF7 breast
# MDA-MB-468 breast = test system: MDA-MB-468 breast
# UO-31 renal = test system: UO-31 renal
# OVCAR-5 ovarian = test system: OVCAR-5 ovarian
# HCT-15 colon = test system: HCT-15 colon
# A498 renal = test system: A498 renal
# M14 melanoma = test system: M14 melanoma
# SF-295 CNS = test system: SF-295 CNS
# U251 glioblastoma = test system: U251 glioblastoma
# 786-0 renal = test system: 786-0 renal
# LOX IMVI melanoma = test system: LOX IMVI melanoma
# SR leukemia = test system: SR leukemia
# SK-MEL-5 melanoma = test system: SK-MEL-5 melanoma
# RPMI-8226 leukemia = test system: RPMI-8226 leukemia
# NCI-H460 NSCLC = test system: NCI-H460 NSCLC
# OVCAR-4 ovarian = test system: OVCAR-4 ovarian
# IGROV1 ovarian = test system: IGROV1 ovarian
# SK-MEL-28 melanoma = test system: SK-MEL-28 melanoma
# RXF 393 renal = test system: RXF 393 renal
# K-562 leukemia = test system: K-562 leukemia
# NCI/ADR-RES ovarian = test system: NCI/ADR-RES ovarian
# SK-MEL-2 melanoma = test system: SK-MEL-2 melanoma
# NCI-H322M lung = test system: NCI-H322M lung
# BT-549 breast = test system: BT-549 breast
# SW-620 colon = test system: SW-620 colon
compound,measurement,setting,value
CC(C)(O)C1CCC(Nc2ccc3ncc(-c4cccc(C(F)(F)F)c4)n3n2)CC1 (centres undefined),GI50,PC-3 prostate,1370 nM
same,TGI,PC-3 prostate,3320 nM
same,GI50,SF-268 CNS,1510 nM
same,TGI,SF-268 CNS,4440 nM
same,GI50,SN12C renal,1480 nM
same,TGI,SN12C renal,5000 nM
same,GI50,UACC-62 melanoma,1500 nM
same,TGI,UACC-62 melanoma,2840 nM
same,GI50,HL-60(TB) leukemia,641 nM
same,TGI,HL-60(TB) leukemia,1880 nM
same,GI50,NCI-H522 lung,1030 nM
same,TGI,NCI-H522 lung,2560 nM
same,GI50,COLO 205 colon,2470 nM
same,TGI,COLO 205 colon,8700 nM
same,GI50,MALME-3M melanoma,833 nM
same,TGI,MALME-3M melanoma,2950 nM
same,GI50,HS 578T breast,364 nM
same,TGI,HS 578T breast,1660 nM
same,GI50,A549 NSCLC,2100 nM
same,TGI,A549 NSCLC,7640 nM
same,GI50,ACHN renal,1630 nM
same,TGI,ACHN renal,5010 nM
same,GI50,KM12 colon,51 nM
same,TGI,KM12 colon,2130 nM
same,GI50,HCT-116 colon,1700 nM
same,TGI,HCT-116 colon,3370 nM
same,GI50,HOP-92 NSCLC,670 nM
same,TGI,HOP-92 NSCLC,3130 nM
same,GI50,NCI-H226 lung,1000 nM
same,TGI,NCI-H226 lung,2660 nM
same,GI50,NCI-H23 lung,1460 nM
same,TGI,NCI-H23 lung,3300 nM
same,GI50,TK-10 renal,1390 nM
same,TGI,TK-10 renal,6840 nM
same,GI50,SNB-75 CNS,1450 nM
same,TGI,SNB-75 CNS,4140 nM
same,GI50,CAKI-1 renal,1490 nM
same,TGI,CAKI-1 renal,3390 nM
same,GI50,MDA-MB-231 breast,1130 nM
same,TGI,MDA-MB-231 breast,3420 nM
same,GI50,DU-145 prostate,2830 nM
same,TGI,DU-145 prostate,12300 nM
same,GI50,SF-539 CNS,1020 nM
same,TGI,SF-539 CNS,2330 nM
same,GI50,MCF7 breast,1490 nM
same,TGI,MCF7 breast,3120 nM
same,GI50,MDA-MB-468 breast,1090 nM
same,TGI,MDA-MB-468 breast,2640 nM
same,GI50,UO-31 renal,2120 nM
same,TGI,UO-31 renal,12400 nM
same,GI50,OVCAR-5 ovarian,1820 nM
same,TGI,OVCAR-5 ovarian,6510 nM
same,GI50,HCT-15 colon,1120 nM
same,TGI,HCT-15 colon,2930 nM
same,GI50,A498 renal,1160 nM
same,TGI,A498 renal,2590 nM
same,GI50,M14 melanoma,798 nM
same,TGI,M14 melanoma,2220 nM
same,GI50,SF-295 CNS,1050 nM
same,TGI,SF-295 CNS,2400 nM
same,GI50,U251 glioblastoma,1320 nM
same,TGI,U251 glioblastoma,2830 nM
same,GI50,786-0 renal,554 nM
same,TGI,786-0 renal,1900 nM
same,GI50,LOX IMVI melanoma,1400 nM
same,TGI,LOX IMVI melanoma,2780 nM
same,GI50,SR leukemia,588 nM
same,TGI,SR leukemia,1690 nM
same,GI50,SK-MEL-5 melanoma,948 nM
same,TGI,SK-MEL-5 melanoma,2320 nM
same,GI50,RPMI-8226 leukemia,190 nM
same,TGI,RPMI-8226 leukemia,365 nM
same,GI50,NCI-H460 NSCLC,1130 nM
same,TGI,NCI-H460 NSCLC,2530 nM
same,GI50,OVCAR-4 ovarian,994 nM
same,TGI,OVCAR-4 ovarian,4820 nM
same,GI50,IGROV1 ovarian,1910 nM
same,TGI,IGROV1 ovarian,5230 nM
same,GI50,SK-MEL-28 melanoma,1370 nM
same,TGI,SK-MEL-28 melanoma,2690 nM
same,GI50,RXF 393 renal,202 nM
same,TGI,RXF 393 renal,616 nM
same,GI50,K-562 leukemia,891 nM
same,TGI,K-562 leukemia,2210 nM
same,GI50,NCI/ADR-RES ovarian,1380 nM
same,TGI,NCI/ADR-RES ovarian,3300 nM
same,GI50,SK-MEL-2 melanoma,1320 nM
same,TGI,SK-MEL-2 melanoma,2620 nM
same,GI50,NCI-H322M lung,1730 nM
same,TGI,NCI-H322M lung,3930 nM
same,GI50,BT-549 breast,1450 nM
same,TGI,BT-549 breast,3880 nM
same,GI50,SW-620 colon,1810 nM
same,TGI,SW-620 colon,4150 nM
